From patent US4394375A, “Cephalosporin derivatives, and compositions containing them” (Beecham Group Limited, priority 1980, dated 1983)
Converted amounts (≈) assume the structure as drawn. Read-outs that look alike come from different tables or passages of the source.

Legend:
Format in all cases: cell-based
[1] = test system: E. coli ESS; assay: MIC, E. coli ESS; conditions: Escherichia coli
[2] = test system: E. coli JT 4; assay: MIC, E. coli JT 4; conditions: Escherichia coli, JT4
[3] = test system: E. coli JT 425; assay: MIC, E. coli JT 425; conditions: Escherichia coli, JT425
[4] = test system: E. coli NCTC 10418; assay: MIC, E. coli NCTC 10418; conditions: Escherichia coli, NCTC10418
[5] = test system: Ps aeruginosa NCTC 10662; assay: MIC, Ps aeruginosa NCTC 10662
[6] = test system: Ps aeruginosa Dalgleish; assay: MIC, Ps aeruginosa Dalgleish; conditions: Ps aeruginosa Dalgleish 10^-2
[7] = test system: S. marcescens US 32; assay: MIC, S. marcescens US 32; conditions: Serratia marcescens, US32
[8] = test system: K. aerogenes A; assay: MIC, K. aerogenes A; conditions: Klebsiella aerogenes
[9] = test system: E. cloacae Nl; assay: MIC, E. cloacae Nl; conditions: Enterobacter cloacae
[10] = test system: P. mirabilis C 977; assay: MIC, P. mirabilis C 977; conditions: Proteus mirabilis, C977
[11] = test system: P. mirabilis 889; assay: MIC, P. mirabilis 889; conditions: Proteus mirabilis
[12] = test system: P. morganii; assay: MIC, P. morganii; conditions: Morganella morganii
[13] = test system: P. rettgeri; assay: MIC, P. rettgeri; conditions: Providencia rettgeri
[14] = test system: B. subtilis; assay: MIC, B. subtilis; conditions: Bacillus subtilis
[15] = test system: S. aureus Oxford; assay: MIC, S. aureus Oxford; conditions: Staphylococcus aureus
[16] = test system: S. aureus Russell; assay: MIC, S. aureus Russell; conditions: Staphylococcus aureus
[17] = test system: N. catarrhalis 1502; assay: MIC, N. catarrhalis 1502
[18] = test system: S. faecalis I; assay: MIC, S. faecalis I; conditions: Enterococcus faecalis
[19] = test system: S. pyogenes CN 10; assay: MIC, S. pyogenes CN 10; conditions: Streptococcus pyogenes, CN10
[20] = Ps aeruginosa NCTC 10662, read-out: MIC

SMILES | MIC [1] [µg/mL] | MIC [2] [µg/mL] | MIC [3] [µg/mL] | MIC [4] [µg/mL] | MIC ([5]; Ps aeruginosa NCTC 10662 10^-2) [µg/mL] | MIC [5, 20] [µg/mL] | MIC [6] [µg/mL] | MIC [7] [µg/mL] | MIC [8] [µg/mL] | MIC [9] [µg/mL] | MIC [10] [µg/mL] | MIC [11] [µg/mL] | MIC [12] [µg/mL] | MIC [13] [µg/mL] | MIC [14] [µg/mL] | MIC [15] [µg/mL] | MIC [16] [µg/mL] | MIC [17] [µg/mL] | MIC [18] [µg/mL] | MIC [19] [µg/mL]
CCN1CCN(C(=O)N[C@@H](C(=O)N[C@]2(CO)C(=O)N3C(C(=O)O)=C(COC(C)=O)CS[C@@H]32)c2ccccc2)C(=O)C1=O [Example 1d, Sodium 7β-[2(4-ethyl-2,3-dioxpiperazine-1-carbonylamino)]phenylacetamido-7α-hydroxymethylcephalosporanate] | < 0.02 | 5 | 2.5 | 2.5 | > 100 | > 100 | > 100 | 5 | 0.5 | 10 | 2.5 | 1 | 10 | 10 | > 100 | > 100 | > 100 | 0.2 | > 100 | 100
CCN1CCN(C(=O)N[C@@H](C(=O)N[C@]2(CO)C(=O)N3C(C(=O)O)=C(COC(C)=O)CS[C@@H]32)c2ccc(O)cc2)C(=O)C1=O [Example 3b, Sodium 7β-[2-(4-ethyl-2,3-dioxopiperazine-1-carbonylamino)-2-(4-hydroxyphenyl)acetamido]-7α-hydroxymethylcephalosporanate] | 0.05 | 2.5 | 1 | 1 | 50 | 50 | 25 | 5 | 0.25 | 10 | 2.5 | 0.5 | 10 | 10 | > 100 | > 100 | > 100 | 0.5 | > 100 | > 100
CCN1CCN(C(=O)N[C@@H](C(=O)N[C@]2(CO)C(=O)N3C(C(=O)O)=C(CSc4nnnn4C)CS[C@@H]32)c2ccccc2)C(=O)C1=O [Example 4, 7β-[2(4-Ethyl-2,3-dioxopiperazine-1-carbonylamino)-2-phenylacetamido]-7α-hydroxymethyl-3-(1-methyl-1H-tetrazol-5-ylthio)methylceph-3-em-4-carboxylic acid] | < 0.02 | 5 (≈ 7.58 µM) | 1 (≈ 1.52 µM) | 1 (≈ 1.52 µM) | > 100 | > 100 | 100 (≈ 152 µM) | 5 (≈ 7.58 µM) | 0.2 (≈ 0.303 µM) | 25 (≈ 37.9 µM) | 5 (≈ 7.58 µM) | 2.5 (≈ 3.79 µM) | 10 (≈ 15.2 µM) | 25 (≈ 37.9 µM) |  |  |  |  |  | 
